This note sets out measurements from ChEMBL document CHEMBL1130810, “Potent, selective benzenesulfonamide agonists of the human beta 3 adrenergic receptor” (Bioorg Med Chem Lett, 1998).

Assay [1] deals with Beta-3 adrenergic receptor (Homo sapiens, UniProt P13945). As to the kind of experiment: Agonist activity against cloned human beta-3 adrenergic receptor. In kind it is functional.
In assay [2] the target is T1, Beta-2 adrenergic receptor (Homo sapiens, UniProt P07550). As to the kind of experiment: biochemical.
Target sequence in this assay (P07550 whole entry): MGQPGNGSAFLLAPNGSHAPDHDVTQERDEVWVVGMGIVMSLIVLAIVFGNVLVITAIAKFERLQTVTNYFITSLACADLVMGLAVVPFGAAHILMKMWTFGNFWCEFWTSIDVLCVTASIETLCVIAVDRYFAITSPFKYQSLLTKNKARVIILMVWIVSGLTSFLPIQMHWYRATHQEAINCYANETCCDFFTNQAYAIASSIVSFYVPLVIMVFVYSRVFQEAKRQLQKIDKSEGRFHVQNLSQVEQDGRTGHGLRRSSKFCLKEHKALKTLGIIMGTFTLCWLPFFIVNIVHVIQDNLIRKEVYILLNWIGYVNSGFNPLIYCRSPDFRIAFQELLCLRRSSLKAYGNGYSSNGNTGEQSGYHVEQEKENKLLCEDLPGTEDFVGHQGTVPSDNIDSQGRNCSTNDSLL
Description: Binding affinity against cloned human beta-2 adrenergic receptor from CHO cells using [125I]iodocyanopindolol as the radioligand
Assay [3] addresses T2, Beta-1 adrenergic receptor (Homo sapiens, UniProt P08588). The experiment in a line: biochemical.
Assay [4] has as its target T2, Beta-1 adrenergic receptor. As to the kind of experiment: (§1) Compound was tested for agonist activity against cloned human beta-1 adrenergic receptor. In kind it is functional.
For assay [5], the target named is T2, Beta-1 adrenergic receptor. As to the kind of experiment: Tested for binding affinity against cloned human beta-1 adrenergic receptor from CHO cells using [125I]iodocyanopindolol as the radioligand. In kind it is cell-based.
Assay [6] concerns the target T2, Beta-1 adrenergic receptor. Described as §1.
In assay [7] the target is T1, Beta-2 adrenergic receptor. As to the kind of experiment: Compound was tested for agonist activity against cloned human beta-2 adrenergic receptor at a concentration of 1000 nM. In kind it is functional.
Target sequence in this assay (P07550 whole entry, looked up): as the sequence (P07550 whole entry) above
In assay [8] the target is T1, Beta-2 adrenergic receptor. The experiment in a line: Compound was tested for agonist activity against cloned human beta-2 adrenergic receptor. In kind it is functional.
Target sequence in this assay (P07550 whole entry): as above
Assay [9] addresses T2, Beta-1 adrenergic receptor. The experiment in a line: Compound was tested for binding affinity against cloned human beta-1 adrenergic receptor from CHO cells using [125I]-iodocyanopindolol as radioligand. It is filed as cell-based.
Assay [10] addresses T1, Beta-2 adrenergic receptor. As to the kind of experiment: Agonist activity against cloned human beta-2 adrenergic receptor as percent activation of adenyl cyclase activity at a concentration of 1000 nM. In kind it is functional.
Target sequence in this assay (P07550 whole entry, looked up): as the sequence (P07550 whole entry) above

pEC50, pIC50: −log10 of the molar value.

Chain of Beta-3 adrenergic receptor (P13945 whole entry): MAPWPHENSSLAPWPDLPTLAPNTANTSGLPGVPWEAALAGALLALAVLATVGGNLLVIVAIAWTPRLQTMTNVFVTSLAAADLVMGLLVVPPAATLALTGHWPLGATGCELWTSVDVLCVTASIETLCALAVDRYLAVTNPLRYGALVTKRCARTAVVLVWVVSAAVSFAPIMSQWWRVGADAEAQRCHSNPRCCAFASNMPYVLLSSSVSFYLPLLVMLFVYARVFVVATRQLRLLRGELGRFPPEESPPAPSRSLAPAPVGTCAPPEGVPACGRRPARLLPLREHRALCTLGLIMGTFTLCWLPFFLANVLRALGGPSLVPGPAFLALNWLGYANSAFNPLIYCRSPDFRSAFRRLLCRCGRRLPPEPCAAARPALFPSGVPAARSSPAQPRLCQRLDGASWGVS
T2 sequence (P08588 whole entry): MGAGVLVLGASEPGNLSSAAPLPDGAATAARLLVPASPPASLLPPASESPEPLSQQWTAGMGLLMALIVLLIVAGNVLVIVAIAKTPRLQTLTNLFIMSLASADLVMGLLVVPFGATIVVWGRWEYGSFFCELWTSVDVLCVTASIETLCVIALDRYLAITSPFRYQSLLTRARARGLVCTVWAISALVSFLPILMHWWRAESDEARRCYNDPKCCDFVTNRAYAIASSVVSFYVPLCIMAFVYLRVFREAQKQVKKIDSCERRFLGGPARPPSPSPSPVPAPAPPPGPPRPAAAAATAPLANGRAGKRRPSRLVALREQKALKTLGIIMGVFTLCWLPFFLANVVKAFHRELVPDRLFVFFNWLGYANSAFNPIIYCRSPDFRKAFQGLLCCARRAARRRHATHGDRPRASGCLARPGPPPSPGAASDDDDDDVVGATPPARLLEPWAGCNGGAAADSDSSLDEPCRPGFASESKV

On to `Nc1ccc(CCNC[C@H](O)COc2ccc(O)cc2)cc1`, for which the pEC50 in assay [1] is 6.36. In addition, the pIC50 is 6.30 in [2] and 6.00 in assay [3].
As to `O=S(=O)(CCc1ccccc1)Nc1ccc(CCNC[C@H](O)COc2ccc(O)cc2)cc1`, the pEC50 in assay [1] was 8.23. For the same compound, the pIC50 in assay [2] is 6.92; in [3], 6.96.
For `O=S(=O)(Nc1ccc(CCNC[C@H](O)COc2ccc(O)cc2)cc1)c1ccc(Cl)cc1`, the pEC50 in [4] is 6.35; in assay [1], 8.32. Moreover, the negative-log IC50 (pIC50) in assay [5] is 6.00; in assay [2], 6.55.
As to `CCCCCS(=O)(=O)Nc1ccc(CCNC[C@H](O)COc2ccc(O)cc2)cc1`, the pEC50 in assay [1] is 5.40. The pIC50 in assay [2] was 6.60; in assay [3], 6.00.
In assay [1], `O=S(=O)(Nc1ccc(CCNC[C@H](O)COc2ccc(O)cc2)cc1)c1ccc(Cl)c(Cl)c1` showed a pEC50 of 7.24. The results for the pIC50 in assay [2] and in assay [3] were 5.52 and less than 5.00, respectively.
Turning to `O=S(=O)(Nc1ccc(CCNC[C@H](O)COc2ccc(O)cc2)cc1)c1ccc(Br)cc1`, the values for the pEC50 in assay [4] and in assay [1] were 6.47 and 9.11, respectively. In addition, the negative logarithm of the IC50 (pIC50) in assay [2] was 6.74; in [3], 6.29.
Compound `CC(C)S(=O)(=O)Nc1ccc(CCNC[C@H](O)COc2ccc(O)cc2)cc1` gave a negative logarithm of the EC50 (pEC50) in [1] of 7.60. Also, the pIC50 is 7.24 in [2] and 7.00 in [3].
The corresponding values for `CC(=O)Nc1ccc(CCNC[C@H](O)COc2ccc(O)cc2)cc1` are 7.57, 7.96 and 7.60.
Take `O=S(=O)(Nc1ccc(CCNC[C@H](O)COc2ccc(O)cc2)cc1)C1CCCCC1`: the pEC50 in assay [4] is 5.92; in [1], 5.82. In addition, the values for the negative-log IC50 (pIC50) in assay [2] and in assay [3] were 5.52 and 5.70, respectively.
`O=S(=O)(Nc1ccc(CCNC[C@H](O)COc2ccc(O)cc2)cc1)c1cnc2ccccc2c1` had a pEC50 in [6] of 6.52. Also, the negative-log IC50 (pIC50) was 6.30 in [5] and 6.62 in assay [2].
`O=S(=O)(Nc1ccc(CCNC[C@H](O)COc2ccc(O)cc2)cc1)c1ccc2ccccc2c1` had a pEC50 in assay [1] of 8.27. Besides, the negative logarithm of the IC50 (pIC50) is 5.05 in [5] and 6.20 in [2].
Take `CCCS(=O)(=O)Nc1ccc(CCNC[C@H](O)COc2ccc(O)cc2)cc1`: the negative-log EC50 (pEC50) in [1] is 7.22. Further, the Max stimulation in [7] was determined as 4%. Further, the pIC50 in assay [2] is 6.30; in assay [3], 6.00.
As to `COc1ccc(CC[C@@H](C)NC[C@@H](O)COc2ccc(O)cc2)cc1`, the pEC50 in [8] was 7.52; in [1] it was 5.22.
`Cc1ccc(S(=O)(=O)Nc2ccc(CCNC[C@H](O)COc3ccc(O)cc3)cc2)cc1` showed a negative-log EC50 (pEC50) in assay [1] of 8.59. The pIC50 is 6.82 in assay [5] and 6.77 in assay [2].
For `COc1ccc(CC[C@H](C)NC[C@H](O)COc2ccc(O)cc2)cc1`, the figures for the pIC50 in [9] and in [2] were 8.00 and 7.70, respectively. In [1], this compound showed a pEC50 of 6.70.
In turn, `COc1ccc(CC[C@H](C)NC[C@@H](O)COc2ccc(O)cc2)cc1` showed a negative logarithm of the EC50 (pEC50) in assay [1] of 5.70.
With `C[C@@H](Cc1ccc(O)cc1)NC[C@H](O)COc1ccc(O)cc1`, the negative-log EC50 (pEC50) in [1] was 7.60. Also, the pIC50 is 7.08 in assay [2] and 7.09 in [3].
For `C[C@@H](CCc1ccc(O)cc1)NC[C@H](O)COc1ccc(O)cc1` the same measures were 7.92, 8.00 and 7.82.
Compound `O=S(=O)(Nc1ccc(CCNC[C@H](O)COc2ccc(O)cc2)cc1)c1cccc(Cl)c1` gave a negative logarithm of the EC50 (pEC50) in [1] of 7.82. Moreover, the negative logarithm of the IC50 (pIC50) was 6.00 in assay [5] and 6.43 in assay [2].
`O=S(=O)(Cc1ccccc1)Nc1ccc(CCNC[C@H](O)COc2ccc(O)cc2)cc1` gave a pEC50 in assay [1] of 7.41. For the same compound, the negative logarithm of the IC50 (pIC50) in assay [2] was 7.68; in assay [3], 7.22.
`O=C(Nc1ccc(CCNC[C@H](O)COc2ccc(O)cc2)cc1)c1ccccc1`: the pEC50 in [1] was 7.21. Besides, the pIC50 was 6.64 in [2] and 8.17 in assay [3].
As for `COc1ccc(CCCNC[C@H](O)COc2ccc(O)cc2)cc1`, the pIC50 in assay [4] is 7.82; in assay [2], 7.20. In assay [1], this compound had a negative logarithm of the EC50 (pEC50) of 6.22.
Turning to `CS(=O)(=O)Nc1ccc(CCNC[C@H](O)COc2ccc(O)cc2)cc1`, in assay [1], the negative-log EC50 (pEC50) was 6.96. The values for the pIC50 in assay [2] and in assay [3] were 6.66 and 6.08, respectively.
With `Oc1ccc(CCNC[C@H](O)COc2ccc(O)cc2)cc1`, in [1], the pEC50 was 7.52. In addition, the negative-log IC50 (pIC50) in assay [2] is 6.82; in assay [3] it was 6.05.
On to `COc1ccc(S(=O)(=O)Nc2ccc(CCNC[C@H](O)COc3ccc(O)cc3)cc2)cc1`, for which the negative logarithm of the EC50 (pEC50) in assay [1] was 8.37. Moreover, the pIC50 in assay [5] was 6.85; in assay [2], 6.72.
For the compound `COc1ccc(C[C@H](C)NC[C@H](O)COc2ccc(O)cc2)cc1`, the pEC50 in [1] was 6.00.
Turning to `COc1ccc(CC[C@@H](C)NC[C@H](O)COc2ccc(O)cc2)cc1`, the figures for the pEC50 in assay [8] and in assay [1] were 8.30 and 6.22, respectively.
As to `O=S(=O)(Nc1ccc(CCNC[C@H](O)COc2ccc(O)cc2)cc1)c1ccccc1Cl`, the Activity in [10] was found to be 2%. Further, in assay [1], the pEC50 was 7.27. Besides, the negative logarithm of the IC50 (pIC50) in assay [2] is 7.00; in assay [3], 6.21.
Take `O=S(=O)(CCCc1ccccc1)Nc1ccc(CCNC[C@H](O)COc2ccc(O)cc2)cc1`: the pEC50 in assay [1] was 7.04. Besides, the negative logarithm of the IC50 (pIC50) in assay [2] is 6.89; in [3] it was 6.00.
As for `O=S(=O)(Nc1ccc(CCNC[C@H](O)COc2ccc(O)cc2)cc1)c1ccccc1`, in assay [1], the pEC50 was 8.20. The figures for the pIC50 in assay [2] and in assay [3] were 6.72 and 6.74, respectively.
